Legend:
[1] = system: IgE antibody present in the serum of a fish-allergic patient; experiment: Epitope mapping (1): peptide array of overlapping 15-amino-acid peptides; assay type: binding, human; conditions: average of 5 patients / average of 4 non-fish-allergic subjects at least 1.5, Mann-Whitney U test
Procedure: Epitope mapping was carried out using a library of overlapping peptides (length: 15 amino acids) corresponding to the amino acid sequences identified as allergy components of fish and the amino acid sequences of known fish allergy antigens aldolase, β-enolase, and glyceraldehyde-3-phosphate dehydrogenase (Non Patent Literature 2-4). Specifically, the library of overlapping peptides was prepared on the basis of the amino acid sequences of SEQ ID NO: 2 for alpha-actinin-3, SEQ ID NO: 5 for EEF1A2 binding protein-like, SEQ ID NO: 10 for alpha-1,4-glucan phosphorylase, SEQ ID NO: 19 for elongation factor 2, SEQ ID NO: 26 for heat shock cognate 70 kDa protein, SEQ ID NO: 33 for serotransferrin, SEQ ID NO: 43 for myosin binding protein H-like, SEQ ID NO: 56 for desmin (fragment), SEQ ID NO: 61 for capping protein (actin filament) muscle Z-line beta, SEQ ID NO: 70 for myosin heavy chain, fast skeletal muscle-like, SEQ ID NO: 110 for glycogen phosphorylase, muscle form-like, SEQ ID NO: 121 for myosin-binding protein C, fast-type-like, SEQ ID NO: 138 for ATP synthase subunit beta, mitochondrial, SEQ ID NO: 144 for L-lactate dehydrogenase A chain-like, SEQ ID NO: 445 for aldolase, SEQ ID NO: 446 for β-enolase, and SEQ ID NO: 447 for glyceraldehyde-3-phosphate dehydrogenase.
The peptides to be synthesized were shifted by 10 amino acids.
For preparation of peptide arrays, the Intavis CelluSpots™ technique was used. Specifically, the peptide arrays were prepared by the following procedure: (1) synthesizing peptides of interest on amino-modified cellulose disks using an automated chemical synthesis apparatus (Intavis MultiPep RS), (2) dissolving the amino-modified cellulose disks to obtain a cellulose-bound peptide solution, and (3) spotting the cellulose-bound peptides onto coated glass slides. The details of each procedure are as described below.
The presence or absence of binding, to each peptide fragment, of an IgE antibody present in the serum of a fish-allergic patient was measured through antigen-antibody reaction using the peptide arrays. The measurement was carried out according to the following procedure. • (1) The peptides were shaken at room temperature for 1 hour in PBST. • (2) The peptide arrays were shaken at overnight at room temperature in 5% serum/PBST. • (3) The peptide arrays were washed with a PBST solution (a PBS buffer containing 0.1% Tween 20 nonionic surfactant) for 5 minutes (×3). • (4) Anti-human IgE antibody-HRP(1:5,000, PBST) was added thereto, and the peptide arrays were shaken at room temperature for 1 hour. • (5) The peptide arrays were washed with a PBST solution for 5 minutes (×3). • (6) Pierce ECL Plus Western Blotting Substrate (produced by Thermo Fisher Scientific) was added thereto, and the peptide arrays were shaken at room temperature for 5 minutes. • (7) The chemiluminescence of the peptides treated as described above in (1) to • (6) was measured using Amersham Imager 600.
Chemiluminescence intensity in images obtained by the measurement described above in (7) was converted into a numeric value using ImageQuant TL (GE Healthcare). The average value of numeric values determined from images obtained from results about the serum of 5 patients was divided by the average value of numeric values determined from images obtained from results about the serum of 4 non-fish-allergic subjects. It was determined that a peptide having a calculated value (average value of the patient group/average value of the non-fish-allergic subject group) of at least 1.5 and a significant difference of […] in the Mann-Whitney U test was a peptide bound to an IgE antibody in a patient-specific manner.

[2] = system: IgE antibodies from patients; experiment: Epitope mapping (2): overlapping 10-amino-acid peptide fragments shifted by one amino acid; assay type: binding, human; conditions: positions numbered within the 15-amino-acid epitope; serum of 5 patients
Text: On the basis of the sequences (SEQ ID NOs: 150-154 for alpha-actinin-3, SEQ ID NO: 155 for EEF1A2 binding protein-like, SEQ ID NOs: 156 and 157 for alpha-1,4-glucan phosphorylase, SEQ ID NOs: 158 and 159 for elongation factor 2, SEQ ID NOs: 160-162 for heat shock cognate 70 kDa protein, SEQ ID NOs: 163-167 for serotransferrin, SEQ ID NOs: 168-171 for myosin binding protein H-like, SEQ ID NOs: 172-174 for desmin (fragment), SEQ ID NOs: 175-178 for capping protein (actin filament) muscle Z-line beta, SEQ ID NOs: 179-185 for myosin heavy chain, fast skeletal muscle-like, SEQ ID NO: 186 for glycogen phosphorylase, muscle form-like, SEQ ID NOs: 187-196 for myosin-binding protein C, fast-type-like, SEQ ID NO: 197 for ATP synthase subunit beta, mitochondrial, SEQ ID NO: 198 for L-lactate dehydrogenase A chain-like, SEQ ID NO: 199 for aldolase, SEQ ID NOs: 200-202 for β-enolase, and SEQ ID NOs: 203 and 204 for glyceraldehyde-3-phosphate dehydrogenase) of the peptides bound to an IgE antibody in serum in a patient-specific manner as described above in (A), a library of overlapping peptide fragments (length: 10 amino acids) was prepared using the sequences of the peptides and sequences in which sequences were added so as to flank each peptide in the amino acid sequences of allergen components (SEQ ID NO: 2 for alpha-actinin-3, SEQ ID NO: 5 for EEF1A2 binding protein-like, SEQ ID NO: 10 for alpha-1,4-glucan phosphorylase, SEQ ID NO: 19 for elongation factor 2, SEQ ID NO: 26 for heat shock cognate 70 kDa protein, SEQ ID NO: 33 for serotransferrin, SEQ ID NO: 43 for myosin binding protein H-like, SEQ ID NO: 56 for desmin (fragment), SEQ ID NO: 61 for capping protein (actin filament) muscle Z-line beta, SEQ ID NO: 70 for myosin heavy chain, fast skeletal muscle-like, SEQ ID NO: 110 for glycogen phosphorylase, muscle form-like, SEQ ID NO: 121 for myosin-binding protein C, fast-type-like, SEQ ID NO: 138 for ATP synthase subunit beta, mitochondrial, SEQ ID NO: 144 for L-lactate dehydrogenase A chain-like, SEQ ID NO: 445 for aldolase, SEQ ID NO: 446 for β-enolase, and SEQ ID NO: 447 for glyceraldehyde-3-phosphate dehydrogenase) comprising the sequences of the peptide. Epitope mapping was carried out using the library.
The peptides to be synthesized were shifted by one amino acid.
The library was prepared by the same procedure as described above in (A), and the presence or absence of binding of an IgE antibody present in the serum of a patient and a non-fish-allergic subject to each peptide fragment was measured by the same technique as described above. Amino acids at positions where the binding activity against IgE antibodies from patients were lost or decreased in the peptides shifted by one amino acid while binding activity against IgE antibodies from non-fish-allergic subjects arose were confirmed as amino acids adversely affecting the specificity of binding to IgE antibodies.
Chemiluminescence intensity in images obtained by measurement was converted into a numeric value in the same manner as in (A) using ImageQuant TL (GE Healthcare). […]

[3] = system: IgE antibody in the serum of a fish-allergic patient; experiment: Immunoblotting of two-dimensional electrophoresis patterns of fish meat proteins with patient serum; assay type: binding, human
Procedure: Proteins contained in fish were analyzed by the aforementioned technique to identify antigens of an allergy to fish. To be specific, proteins were extracted from fish meat and subjected to two-dimensional electrophoresis under the conditions described below.
The electrophoresis in the first dimension was isoelectric focusing, which was performed using isoelectric focusing gels with a gel-strip length of 5 to 10 cm and a gel pH range of 3 to 10. The pH gradient of the gels in the direction of electrophoresis was as follows: with the total gel-strip length being taken as 1, the gel-strip length up to pH 5 was “a=0.15 to 0.3”, the gel-strip length from pH 5 to 7 was “b=0.4 to 0.7”, and the gel-strip length above pH 7 was “c=0.15 to 0.3”. More specifically, the isoelectric focusing was performed using the IPG gels, Immobiline Drystrip (pH3-10NL), produced by GE Healthcare Bio-Sciences Corporation (hereinafter abbreviated as “GE”). The electrophoresis system used was IPGphor produced by GE. The maximum current of the electrophoresis system was limited to 75 μA per gel strip. The voltage program adopted to perform the first-dimensional isoelectric focusing was as follows: (1) a constant voltage step was performed at a constant voltage of 300 V until the volt-hours reached 750 Vhr (the current variation width during electrophoresis for 30 minutes before the end of this step was 5 μA); (2) the voltage was increased gradually to 1000 V for 300 Vhr; (3) the voltage was further increased gradually to 5000 V for 4500 Vhr; and then (4) the voltage was held at a constant voltage of 5000 V until the total Vhr reached 12000.
The electrophoresis in the second dimension was SDS-PAGE, which was performed using polyacrylamide gels whose gel concentration at the distal end in the direction of electrophoresis was set to 3 to 6% and whose gel concentration at the proximal end was set to a higher value than that at the distal end. More specifically, the SDS-PAGE was performed using NuPAGE 4-12% Bris-Tris Gels (IPG well, Mini, 1 mm) produced by Life Technologies. The electrophoresis system used was XCell SureLock Mini-Cell produced by Life Technologies. The electrophoresis was run at a constant voltage of 200 V for about 45 minutes using an electrophoresis buffer composed of 50 mM MOPS, 50 mM Tris base, 0.1% (w/v) SDS and 1 mM EDTA.
Identification of antigens by immunoblotting was carried out by taking all the steps up to the step of “Second-dimensional SDS-PAGE” as described above in Example 1, followed by the steps of “Transfer to membrane”, “Immunoblotting” and “Analysis” as described below.
To be specific, proteins in the second-dimensional electrophoresis gels were transferred to a membrane (PVDF membrane) according to the following procedure. • (1) The PVDF membrane was immersed in 100% methanol followed by milliQ water, and then moved into the transfer buffer to hydrophilize the PVDF membrane. • (2) After sponge, filter paper, the second-dimensional electrophoresis gels treated by second-dimensional SDS-PAGE, the hydrophilized PVDF membrane, filter paper, and sponge were put in place in this order, the transfer system was energized at a constant voltage of 30 V for one hour. Immunoblotting
Immunoblotting of the membrane was carried out using, as a primary antibody, a serum sample from patient 1 with a fish allergy or a serum sample from a non-fish-allergic subject. This fish-allergic patient 1 was a patient diagnosed with immediate-type allergy to fish. […]

[4] = system: IgE antibodies from patients; experiment: Epitope mapping (3): alanine scanning; parameters: species or system human; conditions: positions numbered within the region important for binding; no influence on IgE binding when substituted by alanine
Procedure: From the amino acid sequences identified above in (A), a library of peptide fragments in which N-terminal amino acids were substituted one by one by alanine according to a technique called alanine scanning (Non Patent Literature 5) was prepared by the same technique as described above. The presence or absence of binding of an IgE antibody present in the serum of a patient and a non-fish-allergic subject to each peptide fragment was measured by the same technique as described above. Amino acids at positions where the binding activity against IgE antibodies from patients were lost or decreased by the substitution by alanine while binding activity against IgE antibodies from non-fish-allergic subjects arose were confirmed as amino acids important for exertion of original antigenicity, or amino acids influencing exertion of original antigenicity.
Chemiluminescence intensity in images obtained by measurement was converted into a numeric value in the same manner as in (A) using ImageQuant TL (GE Healthcare). When values obtained using the sequences (SEQ ID NOs: 150-204) that were of the peptides confirmed to bind to an IgE antibody in a patient specific manner from the images obtained from results about the serum of 5 patients and served as the basis of overlapping were defined as 100%, it was determined that: a peptide having a value of less than 20% had no binding activity against IgE antibodies; a peptide having a value of 20% or more and less than 50% had binding activity, albeit poor, against IgE antibodies; a peptide having a value of 50% or more and less than 70% had binding activity, albeit somewhat poor, against IgE antibodies; a peptide having a value of 70% or more and less than 90% had equivalent binding activity against IgE antibodies; and a peptide having a value of 90% or more had almost equivalent or good binding activity against IgE antibodies and was thus a peptide had remaining binding activity against IgE antibodies.
By this analysis, common sequences important for exertion of original antigenicity were found in regions important for binding to IgE antibodies from patients, in the sequences serving as the basis of overlapping.

Row | IgE antibody binding in a patient-specific manner [1] | Positions of amino acids of region important for binding in epitope [2] | specific binding to IgE antibodies from fish-allergic patients ([3]; spots in two-dimensional electrophoresis gel of proteins in fish, patients diagnosed with immediate-type allergy) | Substance | spots detected by immunoblotting, different from spots with serum of non-fish-allergic subject ([3]; proteins contained in salmon meat, serum from fish-allergic patient 2 (FIG. 1B left)) | Non-binding-influencing amino acid in region important for binding [4]
1 | bind in a patient-specific manner | 2-9 | – | 8 (DRFKVFADYEAYIKS; epitope) [compound 8] | – | –
2 | – | – | specific binding to IgE antibodies | L-lactate dehydrogenase A chain-like [Spot 14] | newly detected | –
3 | bind in a patient-specific manner | 1-11 | – | 6 (LDNRLYYMVAEHDSS; epitope) [compound 6] | – | 8
4 | bind in a patient-specific manner | – | – | 7 (GGYIQAVLDRNLCEN; epitope) [compound 7] | – | –
5 | bind in a patient-specific manner | – | – | 37 (GGYIQAVLDRNLCEN; epitope) [compound 37] | – | 3
6 | bind in a patient-specific manner | 1-15 | – | 54 (YMVYMFKYDSTHGRF; epitope) [compound 54] | – | –
7 | bind in a patient-specific manner | 5-13 | – | 49 (VLAGEPVGSRSKVTV; epitope) [compound 49] | – | 6
8 | bind in a patient-specific manner | – | – | 55 (PASYDAIKKVVKAAA; epitope) [compound 55] | – | 5

From patent US12630594B2, “Allergy antigen and epitope for same” (HOYU CO., LTD., priority 2017, dated 2026)
